In PubChem BioAssay (NCI):
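Interpolation was linear, between the two tested concentrations surrounding the appropriate level; five concentrations were tested over 48 hours in 96-well plates. TGI denotes the concentration required for complete inhibition of growth.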

Tests used:
Experiment in all cases: NCI-60 cell line screen, 48 h
[1] = system: TK-10 renal
[2] = system: SF-268 CNS
[3] = system: MCF7 breast
[4] = system: MDA-MB-231 breast
[5] = system: MDA-MB-435
[6] = system: MALME-3M melanoma
[7] = system: T-47D breast
[8] = system: RXF 393 renal
[9] = system: CAKI-1 renal
[10] = system: SNB-19 CNS
[11] = system: NCI-H23 lung
[12] = system: SK-OV-3 ovarian

SMILES	TGI [1] [µM]	TGI [2] [µM]	TGI [3] [µM]	TGI [4] [µM]	TGI [5] [µM]	TGI [6] [µM]	TGI [7] [µM]	TGI [8] [µM]	TGI [9] [µM]	TGI [10] [µM]	TGI [11] [µM]	TGI [12] [µM]
CC(=O)O[C@@]12CO[C@@H]1CC(O)[C@@]1(C)C(=O)[C@H](O)C3=C(C)C(O)C[C@@](O)(C(OC(=O)c4ccccc4)C12)C3(C)C (stereo partly specified)	> 100	> 100	> 100	66	0.413	> 100	> 100	> 100	> 100	> 100	> 41.9	–
Cc1ccc(NC(=O)C(=O)C2C(=O)NC(=O)NC2=O)cc1C	> 100	> 100	–	–	–	> 100	–	> 100	> 100	> 100	> 100	> 100
C[n+]1c2ccccc2c(NC(CCCN=C(N)N)C(=O)O)c2ccccc21 (stereo unspecified)	> 100	> 100	–	–	–	> 100	–	> 100	> 100	> 100	> 100	> 100
CCOC(=O)c1ccc(-c2ccc(Cl)cc2)[nH]1	> 10	> 10	–	–	> 10	> 10	–	–	–	> 10	> 10	> 10
COc1ccc2nc(-c3ccccc3)c(=O)[nH]c2c1	> 100	> 100	> 100	> 100	> 100	> 100	> 100	> 100	> 100	> 100	> 100	–
Cc1cc(C)nc(NC(P(=O)(O)O)P(=O)(O)O)n1	> 100	> 100	> 100	> 100	–	> 100	–	> 100	> 100	> 100	> 100	> 100
COc1ccc(/C=N/N=C(\N)NO)c(OC)c1C	–	> 100	–	–	–	35.2	–	69.8	46.4	> 100	60.6	> 100
CCCC(=O)[O-].CCCC(=O)[O-].NCCN.NCCN.[Co+3].[O-][Cl+3]([O-])([O-])[O-]	> 100	> 100	–	–	–	> 100	–	–	–	> 100	> 100	> 100
O=C1c2c(Br)sc(Br)c2C(=O)C1(O)O	> 100	> 100	> 100	–	38.9	34.6	49.4	37.6	33.3	> 100	99.6	> 100
O=C1CCSCCC(=O)Nc2ccccc2N1	> 100	> 100	–	> 100	> 100	> 100	> 100	> 100	> 100	> 100	> 100	> 100
COc1ccc(N2C(=O)C(=O)N(c3ccc(N=Nc4ccccc4)cc3)C2=S)cc1	50.4	44.4	–	41.5	48.9	33.8	45.1	32.4	47.2	53.4	34.9	68.4
